Data set [1] concerns A549 cells (non-small-cell lung cancer). As to the kind of experiment: MTT cytotoxicity assay, A549. (In general: Formazan colour is commonly taken as a measure of viable cells.)
Method: (§1) Breast carcinoma (MCF-7), renal cell carcinoma (A498), lung cancer (A549), and liver carcinoma (HepG2) cell lines, in addition to non-tumorigenic WI-38 cell lines, were collected from the American Type Culture Collection. The cells were grown in DMEM (Invitrogen/Life Technologies) containing 1% penicillin-streptomycin, 10 µg/mL of insulin (Sigma), and 10% FBS (Hyclone).
(§2) To check the possible cellular toxicity, synthesized compounds were subjected to the MTT [3-(4,5-dimethylthiazol-2-yl)-2,5-diphenyltetrazolium bromide] assay against the MCF7, A549, A498, and HepG2 cell lines. […] Later, 2.0–3.0 mL of Trypsin EDTA solution was added into the flask containing the cell layers for 5–15 min to disperse the cell layer, which was observed through an inverted microscope. By gently pipetting, aspirated cells were added into a 6.0–8.0 mL growth medium. […] An amount of 20 μL of a 5-mg/mL MTT solution was applied after a 24-h drug-treatment period, and it was incubated for 4 h. To dissolve the produced purple formazan, each well received 100 μL of dimethyl sulfoxide (DMSO).
The target of another data set is T1, human COX-2 (Homo sapiens, UniProt P35354).
T1 construct: purchased Biovision, Zurich, Switzerland
T1 sequence (P35354 18-604): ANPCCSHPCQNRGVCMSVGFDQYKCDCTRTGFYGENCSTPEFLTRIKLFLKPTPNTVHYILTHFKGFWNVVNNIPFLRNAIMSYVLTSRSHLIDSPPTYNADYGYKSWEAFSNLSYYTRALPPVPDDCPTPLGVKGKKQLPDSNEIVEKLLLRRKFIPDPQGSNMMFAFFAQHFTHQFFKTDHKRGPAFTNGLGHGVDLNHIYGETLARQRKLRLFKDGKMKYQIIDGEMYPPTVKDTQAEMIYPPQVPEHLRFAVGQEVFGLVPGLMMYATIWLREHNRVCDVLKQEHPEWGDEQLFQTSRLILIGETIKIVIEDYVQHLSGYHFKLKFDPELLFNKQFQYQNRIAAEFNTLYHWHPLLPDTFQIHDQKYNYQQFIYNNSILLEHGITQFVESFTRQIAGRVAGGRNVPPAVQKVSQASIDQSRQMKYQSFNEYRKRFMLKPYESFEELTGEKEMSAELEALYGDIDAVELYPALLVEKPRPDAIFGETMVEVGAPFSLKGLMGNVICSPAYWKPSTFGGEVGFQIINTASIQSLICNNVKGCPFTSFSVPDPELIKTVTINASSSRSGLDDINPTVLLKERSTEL
The experiment in a line: COX-2 inhibition assay (fluorometric inhibitor screening kit). Type of data set: biochemical. An excerpt: Fluorometric inhibitor screening kits (Biovision, Zurich, Switzerland) were utilized for the COX-2 enzyme inhibition test, as described before.

Data set [2] concerns MCF-7 cells. The experiment in a line: Cell cycle analysis by flow cytometry (PI). It counts as cell-based. The protocol: These findings imply that compound 5d’s cytotoxicity was proven by the arrest of cell growth at the G2/M phase.
Compound 5d was applied to MCF-7 cell culture for 48 h at its IC50 concentration. Briefly, cells were rinsed twice with phosphate buffer saline (PBS) (ice-cold) and then centrifuged and/or fixed in 70% (v/v) ethanol (ice-cold). The solution was rinsed with PBS, suspended with RNase (0.1 mg/mL), stained with propidium iodide (PI) ([…]), and analyzed via flow cytometry utilizing the FACS Calibur (Becton Dickinson, Franklin Lakes, NJ, USA). Through Cell-Quest software (Becton Dickinson), cell cycle distributions were calculated.

Data set [3] deals with MCF-7 cells. The experiment in a line: Apoptosis determination by Annexin-V assay. The conditions noted are these: MCF-7, IC50 concentration. Type of data set: cell-based. How it is done:
A biparametric cytofluorimetric analysis was performed using the Annexin-V assay to verify the ability of compound 5d at its IC50 concentration to trigger apoptosis. When compared to the control, compound 5d increased the proportion of early and late apoptotic cells in MCF-7 cells by nearly 13- and 60-fold, respectively, when compared to control cells, which had 0.53% and 0.25% early and late apoptotic cells, respectively.
The MCF-7 cell culture was treated with an IC50 of compound 5d for 48 h. The cancer cells were then suspended in PBS, centrifuged, and preserved in 99% ethanol (ice-cold). Cells suspended in ethanol were centrifuged for 5 min before being suspended in PBS and re-centrifuged once again. The supernatant was decanted, and the cells were stained at 37 °C with annexin V fluorescein isothiocyanate and PI using the apoptosis detection kit (BD Biosciences, San Jose, CA, USA) following the manufacturer’s instructions. A flow cytometer was used to examine the binding of annexin V-FITC and PI. The FACS Calibur was used to assess the cells, and Phoenix Flow Systems and Verity Software House were employed to calculate their distributions.

The subject of data set [4] is WI-38 cells (normal cell derived from lung tissue). As to the kind of experiment: Cytotoxicity on non-tumorigenic WI-38 cell line. To be noted: Homo sapiens, WI-38, read-out: WI-38 IC50.
Method: as §1, §2
Data set [5] deals with HepG2 cells (liver carcinoma). As to the kind of experiment: MTT cytotoxicity assay, HepG2.
Method: as §1, §2
Data set [6] has as its system A498 cells (renal carcinoma). The experiment in a line: MTT cytotoxicity assay, A498.
Method: as §1, §2
Data set [7] relates to MCF7 cells (breast carcinoma). The experiment in a line: MTT cytotoxicity assay, MCF7.
Method: as §1, §2
A further data set has as its system MCF-7. The conditions noted are these: breast cancer cell line; cited from earlier work.
Data set [8] has as its system MDA-MB-231 breast cancer cell line. Details: method as in PMID 28486908. The conditions noted are these: cited from earlier work.
The test system of data set [9] is gastric MGC-803 cancer cells. Details: method as in PMID 25610955, PMID 25180925. The conditions noted are these: cited from earlier work.
The test system of the next data set is HeLa cell lines. Details: method as in doi:10.1007/s00044-012-0051-9. To be noted: anticancer activity in vitro; cited from earlier work.
The subject of the next data set is COX-2. The conditions noted are these: cited from earlier work.
Setting [10] is: MCF-7, compound at its IC50 concentration, 48 h.

The text below walks through data of paper PMC9658812, “New Pyrimidine-5-Carbonitriles as COX-2 Inhibitors: Design, Synthesis, Anticancer Screening, Molecular Docking, and In Silico ADME Profile Studies” (Molecules, 2022).

Molecules are shown by their SMILES. Several values for one entry are separate records, joined by “and”; a condition that tells them apart may be missing. Equal values may be shown once. Read-outs that look alike come from different tables or passages of the source.

Regarding `COc1ccc(-c2nc(NS(=O)(=O)c3ccc(C(F)(F)F)cc3)nc(OC)c2C#N)cc1` [Compound 5d, N-(5-Cyano-4-methoxy-6-(4-methoxyphenyl)pyrimidin-2-yl)-4-(trifluoromethyl)benzene sulfonamide], the melting point – broadly, the temperature, or range, at which the solid turns liquid – lay in the range of 291 to 293 °C. In addition, the IC50 – broadly, the concentration that inhibits the measured activity by half – in data set [1] (Homo sapiens, A549, 24 h, read-out: Cytotoxicity IC50 A549) worked out at 1 ± 0.05 nM. The “fold more cytotoxic than doxorubicin, A549” value in data set [1] (versus doxorubicin) is roughly 13 fold. Moreover, the inhibition (usually the relative decrease from the control value, in per cent) at 10 µM on human COX-2 (10^−5 M, mean of three experiments ± SD, read-out: COX-2 Inhibition (%)) was 41.8 ± 0.91%. For the same compound, the inhibition at 1 µM on human COX-2 (10^−6 M, mean of three experiments ± SD, read-out: COX-2 Inhibition (%)) is 35.9 ± 0.72%. At human COX-2 (10^−7 M, mean of three experiments ± SD, read-out: COX-2 Inhibition (%)), the inhibition at 0.1 µM turned out to be 23.1 ± 0.25%. In addition, on human COX-2 (10^−8 M, mean of three experiments ± SD, read-out: COX-2 Inhibition (%)), the inhibition at 0.01 µM came out at 76.1 ± 1.05%. The inhibition at 0.001 µM at human COX-2 (10^−9 M, mean of three experiments ± SD, read-out: COX-2 Inhibition (%)) turned out to be 60.7 ± 1.09%. Moreover, the IC50 on human COX-2 (human COX-2 assay kit, three experiments) was found to be 160 ± 10 nM. In the data set on MCF-7 cells [2] (MCF-7, IC50 concentration), the “accumulation of cell population in G2/M phase compared to control” value is 5 times and the “accumulation of cell population in sub-G1 phase compared to control” value is 16 times. Also, in the data set on MCF-7 cells [2] (setting [10]), the “%G0-G1” value stood at 24.39 ± 3.01 %; the “%G2/M” value was 58.37 ± 0.52 %; the “%Pre-G1” value came out at 26.16 ± 1.53%; the “%S” value is 16.23% and 16.23 ± 1.23 %. Further, in the data set on MCF-7 cells [3], the “increase of proportion of early apoptotic cells versus control” value was roughly 13 fold, the “increase of proportion of late apoptotic cells versus control” value was roughly 60 fold and the “proportion of necrosis versus control” value is “three-fold”. Further, in the data set on MCF-7 cells [3] (48 h), the “Apoptosis Early” value was 6.78 ± 0.25%, the “Apoptosis Late” value was found to be 14.96 ± 1.10% and the Necrosis was 2.83 ± 0.47%. The IC50 in data set [4] is 91290 ± 470 nM. Moreover, the IC50 in [5] (Homo sapiens, HepG2, 24 h, read-out: Cytotoxicity IC50 HepG2) turned out to be 9 ± 0.34 nM. For the same compound, in data set [5] (versus doxorubicin), the “fold more cytotoxic than doxorubicin, HepG2” value was roughly 2.8 fold. Also, the IC50 in data set [6] (Homo sapiens, A498, 24 h, read-out: Cytotoxicity IC50 A498) was 2 ± 0.08 nM. Besides, the “fold more cytotoxic than doxorubicin, A498” value in data set [6] (versus doxorubicin) was roughly 3.5 fold. Also, the half-inhibitory concentration (IC50) in data set [7] (Homo sapiens, MCF7, 24 h, read-out: Cytotoxicity IC50 MCF7) was found to be 1 ± 0.03 nM. The “fold more cytotoxic than doxorubicin, MCF7” value in [7] (versus doxorubicin) is listed as “about 9 fold”.

For the compound `COc1ccc(-c2nc(N3N=C(c4ccc(F)cc4)CCC3=O)n(C)c(=O)c2C#N)cc1` [Compound V], the IC50 in the data set with MCF-7 is 2560 nM; in [8] it was 3430 nM.

Take `C#CCSc1nc(NC(N)=S)c(C#N)c(-c2cc(OC)c(OC)c(OC)c2)n1` [III]: the IC50 in data set [9] is 4010 nM.

As to `COc1ccc(-c2nc(Nc3ccc(S(N)(=O)=O)cc3)n3c(C)nnc3c2C#N)cc1OC` [II], the IC50 in the data set on HeLa cell lines is 39 nM.

Turning to `NS(=O)(=O)c1ccc(-c2nc(Cl)cc(NCc3cccs3)n2)cc1` [VII], in the data set on COX-2 (COX-2 inhibitor potency), the IC50 is 12.7 nM.

For `CS(=O)(=O)c1ccc(C2=C(c3ccccc3)C(=O)OC2)cc1` [rofecoxib], the IC50 in the data set on COX-2 was 292 nM.
